{"source": "patent USRE48097E1", "about": "“Cephem compounds, their production and use” (priority 2015, dated 2020)", "assay_type_in_all_cases": "cell-based", "key": {"E. coli 4102": {"tested_on": "E. coli 4102", "assay": "MIC against E. coli 4102", "conditions": "Table 2, E. coli 4102, CTX-M-14", "from_the_text": "(§1) Without limitation, the present cephem compounds alone, or in combination with one or more β-lactamase inhibitors, may provide improved antibacterial efficacy, particularly in antibiotic-resistant bacterial strains. It is believed that the present compounds may be structurally different from known compounds and, as a result, may be more basic in nature. It is an advantage that the present compounds may extend the spectrum of effective bacterial compounds, particularly against previously-resistant bacteria (e.g. ESKAPE organisms), and/or gram negative bacteria, without significant side effects. In a preferred embodiment, the present cephem compound may comprise reference compound ceftazidime, which may be used alone, or in combination with one or more β-lactamase inhibitors, such as NXL-104. As shown, the foregoing composition was tested for minimum inhibitory concentration (MIC, μg/mL) against bacteria listed in Tables 2-3."}, "S. pneumoniae 2405": {"tested_on": "S. pneumoniae 2405", "assay": "MIC against S. pneumoniae 2405", "conditions": "Table 2, S. pneumoniae 2405, Pen S", "from_the_text": "as §1"}, "E. cloacae 2710": {"tested_on": "E. cloacae 2710", "assay": "MIC against E. cloacae 2710", "conditions": "Table 3, E. cloacae 2710, KPC-3, VIM-1", "procedure": "(§2) As shown, the foregoing composition was tested for minimum inhibitory concentration (MIC, μg/mL) against bacteria listed in Tables 2-3."}, "S. aureus 3147": {"tested_on": "S. aureus 3147", "assay": "MIC against S. aureus 3147", "conditions": "Table 2, S. aureus 3147, MSSA", "from_the_text": "as §1"}, "C. freundii 579": {"tested_on": "C. freundii 579", "assay": "MIC against C. freundii 579", "conditions": "Table 2, C. freundii 579, Caz R, IMP S", "from_the_text": "as §1"}, "K. pneumoniae 4108": {"tested_on": "K. pneumoniae 4108", "assay": "MIC against K. pneumoniae 4108", "conditions": "K. pneumoniae 4108, KPC-3, TEM-166, SHV-12, SHV-141", "procedure": "as §2"}, "C. freundii 2003": {"tested_on": "C. freundii 2003", "assay": "MIC against C. freundii 2003", "conditions": "Table 2, C. freundii 2003, Caz R, IMP S", "from_the_text": "as §1"}, "K. pneumoniae 4105": {"tested_on": "K. pneumoniae 4105", "assay": "MIC against K. pneumoniae 4105", "conditions": "K. pneumoniae 4105, KPC-3, TEM-1, SHV-11", "procedure": "as §2"}, "K. pneumoniae 2712": {"tested_on": "K. pneumoniae 2712", "assay": "MIC against K. pneumoniae 2712", "conditions": "Table 3, K. pneumoniae 2712, KPC-3, VIM-1", "procedure": "as §2"}, "K. baumanii 2579": {"tested_on": "K. baumanii 2579", "assay": "MIC against K. baumanii 2579", "conditions": "Table 2, K. baumanii 2579, OXA-25", "from_the_text": "as §1"}, "S. pneumoniae 2492": {"tested_on": "S. pneumoniae 2492", "assay": "MIC against S. pneumoniae 2492", "conditions": "Table 2, S. pneumoniae 2492, Pen R", "from_the_text": "as §1"}, "E. coli 4080": {"tested_on": "E. coli 4080", "assay": "MIC against E. coli 4080", "conditions": "Table 2, E. coli 4080, TEM-10", "from_the_text": "as §1"}, "K. pneumoniae 2690": {"tested_on": "K. pneumoniae 2690", "assay": "MIC against K. pneumoniae 2690", "conditions": "Table 3, K. pneumoniae 2690, KPC-2", "procedure": "as §2"}, "S. aureus 3136": {"tested_on": "S. aureus 3136", "assay": "MIC against S. aureus 3136", "conditions": "Table 2, S. aureus 3136, MSSA", "from_the_text": "as §1"}, "S. pneumoniae 2404": {"tested_on": "S. pneumoniae 2404", "assay": "MIC against S. pneumoniae 2404", "conditions": "Table 2, S. pneumoniae 2404, Pen S", "from_the_text": "as §1"}, "K. pneumoniae 2711": {"tested_on": "K. pneumoniae 2711", "assay": "MIC against K. pneumoniae 2711", "conditions": "Table 3, K. pneumoniae 2711, KPC-3, VIM-1", "procedure": "as §2"}, "S. pneumoniae ATCC 6301": {"tested_on": "S. pneumoniae ATCC 6301", "assay": "MIC against S. pneumoniae ATCC 6301", "conditions": "Table 2, S. pneumoniae ATCC 6301, Pen S", "from_the_text": "as §1"}, "E. cloacae 566": {"tested_on": "E. cloacae 566", "assay": "MIC against E. cloacae 566", "conditions": "Table 2, E. cloacae 566, Caz R, IMP S", "from_the_text": "as §1"}, "S. aureus 3144": {"tested_on": "S. aureus 3144", "assay": "MIC against S. aureus 3144", "conditions": "Table 2, S. aureus 3144, MSSA", "from_the_text": "as §1"}, "M. morganii 2409": {"tested_on": "M. morganii 2409", "assay": "MIC against M. morganii 2409", "conditions": "Table 2, M. morganii 2409, High level cephase, β-Lactamase producing", "from_the_text": "as §1"}, "C. freundii 580": {"tested_on": "C. freundii 580", "assay": "MIC against C. freundii 580", "conditions": "Table 2, C. freundii 580, Caz R, IMP S", "from_the_text": "as §1"}, "E. cloacae 2705": {"tested_on": "E. cloacae 2705", "assay": "MIC against E. cloacae 2705", "conditions": "Table 3, E. cloacae 2705, VIM-1, KPC-3type", "procedure": "as §2"}, "E. coli 4098": {"tested_on": "E. coli 4098", "assay": "MIC against E. coli 4098", "conditions": "Table 2, E. coli 4098, CTX-M-15, TEM-1", "from_the_text": "as §1"}, "[1]": {"conditions": "Table 2, in combination with NXL-104"}, "[2]": {"conditions": "Table 3, in combination with NXL-104"}}, "data": [{"smiles": "CC(C)(O/N=C(\\C(=O)N[C@@H]1C(=O)N2C(C(=O)[O-])=C(C[n+]3ccccc3)CS[C@H]12)c1csc(N)n1)C(=O)O", "note": "[CAZ, ceftazidime, reference compound]", "values": [{"measurement": "MIC", "setting": "E. coli 4102; alone", "value": 1.00, "unit": "µg/mL"}, {"measurement": "MIC", "setting": "E. coli 4102; in combination with NXL-104", "value": 0.25, "unit": "µg/mL"}, {"measurement": "MIC", "setting": "S. pneumoniae 2405; alone", "value": 0.25, "unit": "µg/mL"}, {"measurement": "MIC", "setting": "S. pneumoniae 2405; in combination with NXL-104", "value": 0.25, "unit": "µg/mL"}, {"measurement": "MIC", "setting": "E. cloacae 2710; alone", "value": ">32", "unit": "µg/mL"}, {"measurement": "MIC", "setting": "E. cloacae 2710; in combination with NXL-104", "value": ">32", "unit": "µg/mL"}, {"measurement": "MIC", "setting": "S. aureus 3147; alone", "value": 8.00, "unit": "µg/mL"}, {"measurement": "MIC", "setting": "S. aureus 3147; in combination with NXL-104", "value": 8.00, "unit": "µg/mL"}, {"measurement": "MIC", "setting": "C. freundii 579; alone", "value": 4.00, "unit": "µg/mL"}, {"measurement": "MIC", "setting": "C. freundii 579; in combination with NXL-104", "value": 2.00, "unit": "µg/mL"}, {"measurement": "MIC", "setting": "K. pneumoniae 4108; Table 2, alone", "value": 16.00, "unit": "µg/mL"}, {"measurement": "MIC", "setting": "K. pneumoniae 4108; [1]", "value": 4.00, "unit": "µg/mL"}, {"measurement": "MIC", "setting": "K. pneumoniae 4108; Table 3, alone", "value": ">32", "unit": "µg/mL"}, {"measurement": "MIC", "setting": "K. pneumoniae 4108; [2]", "value": 4, "unit": "µg/mL"}, {"measurement": "MIC", "setting": "C. freundii 2003; alone", "value": 4.00, "unit": "µg/mL"}, {"measurement": "MIC", "setting": "C. freundii 2003; in combination with NXL-104", "value": 1.00, "unit": "µg/mL"}, {"measurement": "MIC", "setting": "K. pneumoniae 4105; Table 2, alone", "value": 32.00, "unit": "µg/mL"}, {"measurement": "MIC", "setting": "K. pneumoniae 4105; [1]", "value": 4.00, "unit": "µg/mL"}, {"measurement": "MIC", "setting": "K. pneumoniae 4105; Table 3, alone", "value": ">32", "unit": "µg/mL"}, {"measurement": "MIC", "setting": "K. pneumoniae 4105; [2]", "value": 4, "unit": "µg/mL"}, {"measurement": "MIC", "setting": "K. pneumoniae 2712; alone", "value": ">32", "unit": "µg/mL"}, {"measurement": "MIC", "setting": "K. pneumoniae 2712; in combination with NXL-104", "value": 16, "unit": "µg/mL"}, {"measurement": "MIC", "setting": "K. baumanii 2579; alone", "value": ">32", "unit": "µg/mL"}, {"measurement": "MIC", "setting": "K. baumanii 2579; in combination with NXL-104", "value": ">32", "unit": "µg/mL"}, {"measurement": "MIC", "setting": "S. pneumoniae 2492; alone", "value": 8.00, "unit": "µg/mL"}, {"measurement": "MIC", "setting": "S. pneumoniae 2492; in combination with NXL-104", "value": 8.00, "unit": "µg/mL"}, {"measurement": "MIC", "setting": "E. coli 4080; alone", "value": 16.00, "unit": "µg/mL"}, {"measurement": "MIC", "setting": "E. coli 4080; in combination with NXL-104", "value": 4.00, "unit": "µg/mL"}, {"measurement": "MIC", "setting": "K. pneumoniae 2690; alone", "value": ">32", "unit": "µg/mL"}, {"measurement": "MIC", "setting": "K. pneumoniae 2690; in combination with NXL-104", "value": 4, "unit": "µg/mL"}, {"measurement": "MIC", "setting": "S. aureus 3136; alone", "value": 8.00, "unit": "µg/mL"}, {"measurement": "MIC", "setting": "S. aureus 3136; in combination with NXL-104", "value": 8.00, "unit": "µg/mL"}, {"measurement": "MIC", "setting": "S. pneumoniae 2404; alone", "value": 32.00, "unit": "µg/mL"}, {"measurement": "MIC", "setting": "S. pneumoniae 2404; in combination with NXL-104", "value": 32.00, "unit": "µg/mL"}, {"measurement": "MIC", "setting": "K. pneumoniae 2711; alone", "value": ">32", "unit": "µg/mL"}, {"measurement": "MIC", "setting": "K. pneumoniae 2711; in combination with NXL-104", "value": 2, "unit": "µg/mL"}, {"measurement": "MIC", "setting": "S. pneumoniae ATCC 6301; alone", "value": 0.12, "unit": "µg/mL"}, {"measurement": "MIC", "setting": "S. pneumoniae ATCC 6301; in combination with NXL-104", "value": 0.12, "unit": "µg/mL"}, {"measurement": "MIC", "setting": "E. cloacae 566; alone", "value": ">32", "unit": "µg/mL"}, {"measurement": "MIC", "setting": "E. cloacae 566; in combination with NXL-104", "value": 2.00, "unit": "µg/mL"}, {"measurement": "MIC", "setting": "S. aureus 3144; alone", "value": 16.00, "unit": "µg/mL"}, {"measurement": "MIC", "setting": "S. aureus 3144; in combination with NXL-104", "value": 16.00, "unit": "µg/mL"}, {"measurement": "MIC", "setting": "M. morganii 2409; alone", "value": 16.00, "unit": "µg/mL"}, {"measurement": "MIC", "setting": "M. morganii 2409; in combination with NXL-104", "value": 4.00, "unit": "µg/mL"}, {"measurement": "MIC", "setting": "C. freundii 580; alone", "value": 8.00, "unit": "µg/mL"}, {"measurement": "MIC", "setting": "C. freundii 580; in combination with NXL-104", "value": 2.00, "unit": "µg/mL"}, {"measurement": "MIC", "setting": "E. cloacae 2705; alone", "value": ">32", "unit": "µg/mL"}, {"measurement": "MIC", "setting": "E. cloacae 2705; in combination with NXL-104", "value": ">32", "unit": "µg/mL"}, {"measurement": "MIC", "setting": "E. coli 4098; alone", "value": 2.00, "unit": "µg/mL"}, {"measurement": "MIC", "setting": "E. coli 4098; in combination with NXL-104", "value": 0.50, "unit": "µg/mL"}]}]}
